18 compounds from ChEMBL document CHEMBL4811289, “Antibacterial and Cytotoxic Phenyltetracenoid Polyketides from Streptomyces morookaense” (J Nat Prod, 2021) can be followed below.

Test [1] has as its system Staphylococcus aureus. In words: Antibacterial activity against methicillin-resistant Staphylococcus aureus ATCC 6548 incubated for 6 to 8 hrs by MABA. Type of test: functional. The note with it: time 6-8 hrs. For orientation: Alamar Blue is a resazurin reagent that responds to reducing activity.
Test [2] relates to Staphylococcus aureus. In words: Antibacterial activity against methicillin-sensitive Staphylococcus aureus incubated for 6 to 8 hrs by MABA. Type of test: functional. As to conditions: time 6-8 hrs.
Test [3] has as its system Enterococcus faecium. Nature of the test: Antibacterial activity against vancomycin-sensitive Enterococcus faecium incubated for 6 to 8 hrs by MABA. It counts as functional. The note with it: time 6-8 hrs.
Test [4] concerns A549. In words: Cytotoxicity against human A549 cells assessed as reduction in cell viability after 72 hrs by MTT assay. Type of test: functional, cell-based. A general note: Tetrazolium dyes change colour on reduction, which living cells bring about.
The test system of test [5] is HeLa. In words: Cytotoxicity against human HeLa cells assessed as reduction in cell viability after 72 hrs by MTT assay. It counts as functional, cell-based.
Test [6] has as its system HepG2. In words: Cytotoxicity against human HepG2 cells assessed as reduction in cell viability after 72 hrs by MTT assay. It counts as functional, cell-based.
Test [7] has as its system Vero. Nature of the test: Cytotoxicity against African green monkey Vero cells assessed as reduction in cell viability after 72 hrs by MTT assay. Type of test: cell-based, Chlorocebus sabaeus.
Test [8] deals with MCF7. Nature of the test: Cytotoxicity against human MCF7 cells assessed as reduction in cell viability after 72 hrs by MTT assay. Type of test: functional, cell-based.
Where [9] appears, read: Chlorocebus sabaeus, Vero, 72 h.

Where “and” joins values, the source holds several entries; their conditions need not be identical. Identical values can stand only once. Counter-ions that a name gives are not always drawn.

As for `COc1cc(-c2c(O)cc(OC)c(Cl)c2C)c2c(O)c3c(cc2c1)C(C)(C)c1cc(OC)c(Cl)c(O)c1C3=O`, the MIC in test [1], in test [2] and in test [3] was above 10 µg/mL in each case. Besides, the concentration for half-maximal inhibition (IC50) (in general, the point on the concentration scale where inhibition reaches its midpoint) was determined as 7.7 µM in test [4] (Homo sapiens, A549, 72 h); 22.4 µM in test [5] (Homo sapiens, HeLa, 72 h); 10.2 µM in test [6] (Homo sapiens, HepG2, 72 h); 18 µM in test [7] (setting [9]); 18.3 µM in test [8] (Homo sapiens, MCF7, 72 h).

For `COc1cc2c(c(O)c1Cl)C(=O)c1c(cc3c(Cl)c(O)cc(-c4c(C)c(Cl)c(O)c(Cl)c4O)c3c1O)C2(C)C`, the IC50 was 7 µM in test [4] (Homo sapiens, A549, 72 h); 14.3 µM in test [5] (Homo sapiens, HeLa, 72 h); 9.8 µM in test [6] (Homo sapiens, HepG2, 72 h); 27.3 µM in test [7] (setting [9]); 18.1 µM in test [8] (Homo sapiens, MCF7, 72 h).

For `COc1cc(C)c(-c2cc(O)cc3cc4c(c(O)c23)C(=O)c2c(cc(OC)c(Cl)c2O)C4(C)C)c(O)c1`, the IC50 in test [4] (Homo sapiens, A549, 72 h) stood at 3.4 µM; in test [5] (Homo sapiens, HeLa, 72 h) it was 2.9 µM; in test [6] (Homo sapiens, HepG2, 72 h) it was 3.2 µM; in test [7] (setting [9]), 3.3 µM; in test [8] (Homo sapiens, MCF7, 72 h), 3 µM.

As for `COc1cc(C)c(-c2nc(C)cc3cc4c(c(O)c23)C(=O)c2c(cc(OC)c(Cl)c2OC)C4(C)C)c(OC)c1`, the minimum inhibitory concentration (MIC) in test [1], in test [2] and in test [3] was above 10 µg/mL each time. The IC50 is 14.5 µM in test [4] (Homo sapiens, A549, 72 h); 12.6 µM in test [4] (a549); 3.4 µM in test [5] (Homo sapiens, HeLa, 72 h); 3.3 µM in test [5] (hela); 9.5 µM in test [6] (Homo sapiens, HepG2, 72 h); 8.7 µM in test [6] (hepg2). Besides, the half-inhibitory concentration (IC50) in test [7] (setting [9]) amounted to 6.1 µM; in test [7] (vero), 10 µM; in test [8] (Homo sapiens, MCF7, 72 h), 4.4 µM; in test [8] (mcf7), 8.7 µM.

`COc1cc(C)c(-c2cc(OC)c(Cl)c3cc4c(c(O)c23)C(=O)c2c(cc(OC)c(Cl)c2O)C4(C)C)c(O)c1`: the MIC in test [1], in test [2] and in test [3] was above 10 µg/mL throughout. Also, the IC50 in test [4] (Homo sapiens, A549, 72 h) stood at 9 µM; in test [5] (Homo sapiens, HeLa, 72 h) it was 11.5 µM; in test [6] (Homo sapiens, HepG2, 72 h), 9.2 µM; in test [7] (setting [9]), 6.1 µM; in test [8] (Homo sapiens, MCF7, 72 h) it was 3.8 µM.

Consider `COc1cc(C)c(C(=O)c2c(CC(C)=O)cc3c(c2O)C(=O)c2c(OC)cc(OC)cc2C3(C)C)c(OC)c1`, for which the MIC in test [1], in test [2] and in test [3] was above 10 µg/mL in each case. For the same compound, the IC50 in test [4] (Homo sapiens, A549, 72 h) is 13.1 µM; in test [5] (Homo sapiens, HeLa, 72 h) it was above 50 µM; in test [6] (Homo sapiens, HepG2, 72 h), above 50 µM; in test [7] (setting [9]), above 50 µM; in test [8] (Homo sapiens, MCF7, 72 h), 29.3 µM.

For `COC1=CC(=O)C(c2cc(OC)cc3cc4c(c(O)c23)C(=O)c2c(cc(OC)c(Cl)c2O)C4(C)C)=C(C)C1=O`, the MIC in test [1], in test [2] and in test [3] was above 10 µg/mL throughout. The IC50 in test [4] (Homo sapiens, A549, 72 h) is above 50 µM; in test [5] (Homo sapiens, HeLa, 72 h), above 50 µM; in test [6] (Homo sapiens, HepG2, 72 h), above 50 µM; in test [7] (setting [9]) it was above 50 µM; in test [8] (Homo sapiens, MCF7, 72 h), above 50 µM.

`COc1cc2c(c(O)c1Cl)C(=O)c1c(cc3c(Cl)c(O)cc(-c4c(O)cc(O)c(Cl)c4C)c3c1O)C2(C)C`: the IC50 in test [4] (Homo sapiens, A549, 72 h) turned out to be 3.1 µM; in test [5] (Homo sapiens, HeLa, 72 h) it was 4.7 µM; in test [6] (Homo sapiens, HepG2, 72 h), 5.3 µM; in test [7] (setting [9]), 14.6 µM; in test [8] (Homo sapiens, MCF7, 72 h) it was 4.7 µM.

With `COc1cc(C)c(-c2cc(OC)c(Cl)c3cc4c(c(O)c23)C(=O)c2c(cc(OC)c(Cl)c2OC)C4(C)C)c(O)c1`, the minimum inhibitory concentration (MIC) in test [1], in test [2] and in test [3] was above 10 µg/mL in each case. The IC50 in test [4] (Homo sapiens, A549, 72 h) came to 8.3 µM; in test [5] (Homo sapiens, HeLa, 72 h) it was 15 µM; in test [6] (Homo sapiens, HepG2, 72 h), 15 µM; in test [7] (setting [9]) it was 9 µM; in test [8] (Homo sapiens, MCF7, 72 h), 13.1 µM.

With `COc1cc(C)c(-c2cc(O)c(Cl)c3cc4c(c(O)c23)C(=O)c2c(cc(OC)c(Cl)c2O)C4(C)C)c(O)c1`, the IC50 in test [4] (Homo sapiens, A549, 72 h) was found to be 2.8 µM; in test [5] (Homo sapiens, HeLa, 72 h) it was 3.3 µM; in test [6] (Homo sapiens, HepG2, 72 h), 3.2 µM; in test [7] (setting [9]), 9 µM; in test [8] (Homo sapiens, MCF7, 72 h), 3.6 µM.

Take `COc1cc2c(c(O)c1Cl)C(=O)c1c(cc3cc(O)cc(-c4c(C)c(Cl)c(O)c(Cl)c4O)c3c1O)C2(C)C`: the 50% inhibitory concentration (IC50) in test [4] (Homo sapiens, A549, 72 h) was 4.6 µM; in test [5] (Homo sapiens, HeLa, 72 h), 6.1 µM; in test [6] (Homo sapiens, HepG2, 72 h), 4.5 µM; in test [7] (setting [9]), 12.5 µM; in test [8] (Homo sapiens, MCF7, 72 h), 9.2 µM.

`COc1cc2c(c(O)c1Cl)C(=O)c1c(cc3cc(O)cc(-c4c(O)cc(O)c(Cl)c4C)c3c1O)C2(C)C`: the IC50 in test [4] (Homo sapiens, A549, 72 h) came out at 13.1 µM; in test [5] (Homo sapiens, HeLa, 72 h) it was 15 µM; in test [6] (Homo sapiens, HepG2, 72 h), 11.7 µM; in test [7] (setting [9]), 14.6 µM; in test [8] (Homo sapiens, MCF7, 72 h) it was 17.6 µM.

As for `COc1cc(O)c(-c2cc(O)cc3cc4c(c(O)c23)C(=O)c2c(cc(OC)c(Cl)c2O)C4(C)C)c(C)c1Cl`, the IC50 worked out at 2.6 µM in test [4] (Homo sapiens, A549, 72 h); 3.7 µM in test [5] (Homo sapiens, HeLa, 72 h); 3.7 µM in test [6] (Homo sapiens, HepG2, 72 h); 3.5 µM in test [7] (setting [9]); 3.1 µM in test [8] (Homo sapiens, MCF7, 72 h).

For the compound `COc1cc(C)c(-c2cc(OC)cc3cc4c(c(O)c23)C(=O)c2c(cc(OC)c(Cl)c2O)C4(C)C)c(O)c1`, the MIC in test [1], in test [2] and in test [3] was above 10 µg/mL each time. Besides, the IC50 in test [4] (Homo sapiens, A549, 72 h) amounted to 7.6 µM; in test [5] (Homo sapiens, HeLa, 72 h) it was 4.6 µM; in test [6] (Homo sapiens, HepG2, 72 h) it was 8.3 µM; in test [7] (setting [9]), 8.2 µM; in test [8] (Homo sapiens, MCF7, 72 h), 7.5 µM.

Take `COc1cccc2c1C(=O)c1c(O)c3c(c(O)c1C2=O)C[C@@](O)(C(=O)CO)C[C@@H]3O[C@H]1C[C@H](N)[C@H](O)[C@H](C)O1` [DOXORUBICIN HYDROCHLORIDE]: the IC50 in test [4] (Homo sapiens, A549, 72 h) was found to be 0.69 µM; in test [5] (Homo sapiens, HeLa, 72 h), 0.31 µM; in test [6] (Homo sapiens, HepG2, 72 h), 0.8 µM; in test [8] (Homo sapiens, MCF7, 72 h), 1.02 µM.

Turning to `COc1cc(C)c(-c2cc(OC)cc3cc4c(c(O)c23)C(=O)c2c(cc(OC)c(Cl)c2OC)C4(C)C)c(O)c1`, the MIC in test [1], in test [2] and in test [3] was above 10 µg/mL in each case. For the same compound, the IC50 in test [4] (Homo sapiens, A549, 72 h) was found to be 6.4 µM; in test [5] (Homo sapiens, HeLa, 72 h), 4.1 µM; in test [6] (Homo sapiens, HepG2, 72 h), 3.2 µM; in test [7] (setting [9]), 5.8 µM; in test [8] (Homo sapiens, MCF7, 72 h), 7.9 µM.

`COc1cc2c(c(O)c1Cl)C(=O)c1c(cc3cc(O)cc(-c4c(C)c(Cl)c(O)c(Cl)c4OC)c3c1O)C2(C)C`: the half-maximal inhibitory concentration (IC50) in test [4] (Homo sapiens, A549, 72 h) came out at 5.4 µM; in test [5] (Homo sapiens, HeLa, 72 h), 4.8 µM; in test [6] (Homo sapiens, HepG2, 72 h), 4.7 µM; in test [7] (setting [9]), 11.1 µM; in test [8] (Homo sapiens, MCF7, 72 h), 18.4 µM.

Turning to `COc1cc(C)c(-c2nc(C)cc3cc4c(c(O)c23)C(=O)c2c(OC)cc(OC)cc2C4(C)C)c(OC)c1`, the MIC in test [1], in test [2] and in test [3] was above 10 µg/mL in each case. Further, the IC50 in test [4] (Homo sapiens, A549, 72 h) turned out to be 5.1 µM; in test [4] (a549), 6.6 µM; in test [5] (Homo sapiens, HeLa, 72 h), 3.7 µM; in test [5] (hela), 4.6 µM; in test [6] (Homo sapiens, HepG2, 72 h) it was 3.4 µM; in test [6] (hepg2), 3.8 µM. Moreover, the IC50 in test [7] (vero) was 2.7 µM and 7.5 µM; in test [8] (Homo sapiens, MCF7, 72 h), 5.9 µM; in test [8] (mcf7), 11.2 µM.
